# Tests used:
# [1] = healthy volunteers, single ascending doses up to 800 mg once daily; cited from earlier work
# [2] = system: HEPG2 hepatic cancer cells; experiment: MTT cell viability assay, HEPG2 hepatic cancer cells; format: cell-based; settings: 72 hours, 1.0-20 μM, calculated with Compusyn software
# Description: (§1) FIG. 2. Floxphosteridine and floxuridine anticancer activity in vitro against HEPG2 hepatic cancer cells. HEPG2 hepatic cancer cells were treated with various concentrations (1.0 μM-20 μM) of floxphosteridine and floxuridine for 72 hours, and cell viability was evaluated with MTT cell viability assay.
# (§2) We treated three cancer cell lines with various concentrations of Floxphosteridine (compound Ic) and floxuridine for 72 hours. The structure of floxuridine is shown below:
# (§3) The SK-HEP-1 and HEPG2 cell lines used in these experiments represent in vitro models for hepatic cancer. The AGS cancer cell line is an in vitro model for gastric cancer.
# In FIG. 2, the two compounds were tested for anticancer activity against HEPG2 hepatic cancer cells. The cells were treated with various concentrations (1.0-20 μM) of floxphosteridine and floxuridine for 72 hours, and cell viability was evaluated with the MTT assay.
# [3] = system: SK-HEP-1 hepatic cancer cells; experiment: MTT cell viability assay, SK-HEP-1 hepatic cancer cells; format: cell-based; settings: 72 hours, 0.01-20 μM, calculated with Compusyn software
# Description: as §1, with “1.” for “2.”, “SK-HEP-1” for “HEPG2”, “(0.01” for “(1.0”
# as §2, §3
# In FIG. 1, SK-HEP-1 hepatic cancer cells were treated with various concentrations (0.01-20 μM) of floxphosteridine and floxuridine for 72 hours, and cell viability was evaluated with the MTT assay.
# AGS gastric cancer cells = experiment: MTT cell viability assay, AGS gastric cancer cells; format: cell-based; settings: 72 hours, 1.0-20 μM (0.01-20 μM), calculated with Compusyn software
# Description: FIG. 3. Floxphosteridine and floxuridine anticancer activity in vitro against AGS gastric cancer cells. AGS gastric cancer cells were treated with various concentrations (0.01 μM-20 μM) of floxphosteridine and floxuridine for 72 hours, and cell viability was evaluated with MTT cell viability assay.
# as §2, §3
# In FIG. 3, the two compounds were tested for anticancer activity against AGS gastric cancer cells. The cells were treated with various concentrations (1.0-20 μM) of floxphosteridine and floxuridine for 72 hours, and cell viability was evaluated with the MTT assay.
compound,measurement,setting,value
CC(C)OC(=O)[C@H](C)N[P@](=O)(OC[C@H]1O[C@@H](n2ccc(=O)[nH]c2=O)[C@](C)(F)[C@@H]1O)Oc1ccccc1 (racemic) [PSI-7851],safety and tolerability,[1],"generally safe and well tolerated, with no dose-limiting toxicities"
same,systemic exposure profile (pharmacokinetic results),[1],rapid uptake of the drug by the liver and low plasma exposure to the prodrug PSI-7851
CC(C)OC(=O)[C@H](C)N[P@](=O)(OC[C@H]1O[C@@H](n2cc(F)c(=O)[nH]c2=O)C[C@@H]1O)Oc1ccccc1 [floxphosteridine],IC50,[2]; Homo sapiens,13.3 µM
same,IC50,"[3]; Homo sapiens, SK-HEP1, SK-HEP-1 cells",31.7 µM
same,IC50,AGS gastric cancer cells; Homo sapiens,7.26 µM
floxuridine,IC50,[2],10.4 µM
same,IC50,[3]; SK-HEP-1 cells,0.8 µM
same,IC50,AGS gastric cancer cells,5.71 µM
